Source: patent US20120283293A1, “Methods of neuroprotection involving Prostaglandin E2 EP4 (PGE2 EP4) receptor activation” (The Board of Trustees of the Leland Stanford Junior …, priority 2011, published 2012)

Key:
[1] = system: Akt phosphorylation in BV-2 cells; experiment: phospho-Akt quantitative Western (Ser473) and ELISA (Thr308) in LPS-treated BV-2 cells; type: cell-based, murine
Method: Nuclear and cytoplasmic fractions of BV-2 cells were prepared at several time points after treatment (0-120 minutes) using the nuclear extract kit from Active Motif (Carlsbad, Calif.). Briefly, cells were washed, collected in ice-cold PBS in the presence of phosphatase inhibitors, and centrifuged at 300×g for 5 min at 4° C. Cell pellets were resuspended in hypotonic buffer, treated with detergent, and centrifuged at 14,000×g for 30 sec at 4° C. After collection of the cytoplasmic fraction, nuclei were solubilized for 30 min in lysis buffer containing protease inhibitors. Lysates were centrifuged at 14,000×g for 30 min at 4° C. and supernatants were collected for NF-κB studies. To prepare whole cell lysates for phospho-Akt and phospho-IKK studies, cells were washed in ice-cold PBS and lysed in 20 mM Tris-HCl, pH 7.5, 150 mM NaCl, 1 mM Na2EDTA, 1 mM EGTA, 1% Triton, 2.5 mM sodium pyrophosphate, 1 mM β-glycerophosphate, 1 mM orthovanadate, 1 μg/ml leupeptin and 1 mM PMSF. Lysates were sonicated for 5 seconds, centrifuged at 14,000×g for 10 min at 4° C. and supernatants were collected for phospho-Akt and phospho-IKK studies. All protein concentrations were determined using the Bradford protein assay.
Western blot analysis. […] Immunoreactivity was detected using either sheep anti-rabbit or sheep anti-mouse HRP-conjugated secondary antibody (Amersham Biosciences, Arlington Heights, Ill.), followed by enhanced chemiluminescence (Pierce). Autoradiographic signals were quantified using NIH Image. […]
Measurements of phospho-Akt and total Akt were determined using the PathScan phospho-Akt (Thr308) and total Akt1 ELISA kits (Cell Signaling Technology, Danvers, Mass.). […]
In addition to its known Gas coupling to PKA, the EP4 receptor can signal via PI3K and Akt via a Gαi subunit (Fujino et al., 2002; Fujino & Regan, 2006). To further investigate whether EP4 signaling modulates PI3K/Akt pathway activity in LPS-stimulated BV-2 cells, levels of phospho-Akt were measured using quantitative Western analysis (phosphorylated Ser473 Akt; FIG. 3C) and ELISA (phosphorylated Thr308 Akt; FIG. 3D). […]

[2] = system: plasma cytokine and chemokine levels; experiment: plasma multi-analyte analysis in LPS-stimulated mice; type: in vivo, mouse; settings: LPS 5 mg/kg i.p., AE1-329 300 μg/kg s.c.
Method: The murine in vivo studies were conducted in accordance with the National Institutes of Health guidelines for the use of experimental animals and protocols were approved by the Institutional Animal Care and Use Committee. C57B6 EP4 floxed mice (Schneider et al., 2004) were kindly provided by Drs. Richard and Matthew Breyer (Vanderbilt University School of Medicine, Nashville, Tenn.), and C57B6 Cd11bCre mice (Boillee et al., 2006) were kindly provided by Dr. G. Kollias (Alexander Fleming Biomedical Sciences Research Center, Vari, Greece) and Dr. Donald Cleveland (UCSD, San Diego, Calif.). All mice were housed in an environment controlled for lighting (12 hour light/dark cycle), temperature, and humidity, with food and water available ad libitum. Cd11bCre:EP4f/f and Cd11bCre:EP4+/+ mice were generated by serial crosses of C57B6 Cd11bCre and EP4f/f and EP4+/+ lines. Male Cd11bCre: EP4f/f and Cd11bCre: EP4+/+ mice were treated with either saline or LPS (5 mg/kg intraperitoneally: n=5-8 per group, 13 months of age). 24 hours after injection, mice were euthanized and brain tissue was harvested and frozen at −80° C. For pharmacological experiments, C57B6 male mice (Jackson Laboratories, Bar Harbor, Me.; n=7 or 8 per group) received an injection of saline or LPS (5 mg/kg, i.p.+/−vehicle or AE1-329 ([…]) (Qin et al., 2007; Nagamatsu et al., 2006). Mice were euthanized 6 hours later, and brain tissue was harvested and frozen at −80° C. For collection of plasma, C57B6 male mice (n=5 per group) received an injection of saline or LPS (5 mg/kg, i.p.)+/−AE1-329 ([…].) or vehicle. […] Plasma was collected after centrifugation at 1000×g for 10 min at 4° C. and frozen at −80° C.
Plasma was analyzed using the Rodent MAP™ Antigens, Version 2.0 multi-analyte profile (Rules Based Medicine, Austin, Tex.) that screens a total of 59 blood secreted proteins using multiplex fluorescent immunoassay.
Data are presented as mean±standard error of the mean and analyzed using analysis of variance or Student's t test. Prism software (GraphPad Software, Inc. San Diego, Calif.) was used for statistical analyses. Data for Griess assays and quantitative Western analyses were analyzed using one-way or two-way ANOVA, followed by Newman-Keuls multiple comparison or Bonferroni posttest analysis, respectively. For plasma multi-analyte analysis, the concentrations of the 15 plasma proteins that reached statistical significance between LPS+vehicle versus LPS+AE1-329 cohorts were transformed to relative concentrations (Median Z-score). Cluster analysis (Gene Cluster3.0, University of Tokyo, Tokyo and Java TreeView 1.0.13, Alok Saldanda, Calif.) produced a separation of samples according to treatment group and protein levels in plasma. […]

Structure (SMILES): COCc1ccccc1CC[C@H](O)/C=C/[C@H]1[C@H](O)CC(=O)[C@@H]1SCCCSCC(=O)O [AE1-329]
- Akt phosphorylation, agonist alone ([1]; BV-2 cells, in the absence of LPS): did not alter Akt phosphorylation
- phospho-Ser473 Akt signal (quantitative Western) ([1]; LPS (100 ng/ml) treated BV-2 cells, AE1-329 100 nM, over 60 minutes): significant attenuation
- phospho-Thr308 Akt (ELISA, p-Akt/Akt) ([1]; LPS-treated BV-2 cells, AE1-329 100 nM, 60 minutes): significant decrease
- plasma levels of IL-10 ([2]; 3 hours): significantly increased plasma levels
- plasma levels of TNF-α, IL-1α, eotaxin, MDC, MIP-1α, MIP-1β, MIP-1γ, MIP-2, MCP-1, MCP-3 and MCP-5 ([2]; 3 hours): significantly decreased levels
- plasma myeloperoxidase ([2]; 3 hours): reduced secreted levels
- plasma levels of IL-6 and LIF ([2]; printed 'at 6 h'): trend towards decreased levels
